Reference: patent US7875629B2, “Quinolinone compounds as 5-HT4 receptor agonists” (Theravance, Inc., priority 2005, dated 2011)

Key:
[1] = in vivo; details: male, Sprague-Dawley, rat
Description: Pharmacokinetic Study in the Rat
Male Sprague-Dawley rats (CD strain, Charles River Laboratories, Wilmington, Mass.) were dosed with test compounds via intravenous administration (IV) at a dose of 2.5 mg/kg or by oral gavage (PO) at a dose of 5 mg/kg. The dosing volume was 1 mL/kg for IV and 2 mL/kg for PO administration. Serial blood samples were collected from animals pre-dose, and at 2 (IV only), 5, 15, and 30 min, and at 1, 2, 4, 8, and 24 hours post-dose.
Standard pharmacokinetic parameters were assessed by non-compartmental analysis (Model 201 for IV and Model 200 for PO) using WinNonlin (Version 4.0.1, Pharsight, Mountain View, Calif.). The maximum in the curve of test compound concentration in blood plasma vs. time is denoted Cmax. The area under the concentration vs. time curve from the time of dosing to the last measurable concentration (AUC(0-t)) was calculated by the linear trapezoidal rule. Oral bioavailability (F(%)), i.e. the dose-normalized ratio of AUC(0-t) for PO administration to AUC(0-t) for IV administration, was calculated as: F(%)=AUCPO/AUCIV×DoseIV/DosePO×100%

[2] = target: T1, hERG cardiac potassium channel (Homo sapiens, UniProt Q12809); experiment: in vitro; format: cell-based; details: pH 7.4
T1 construct: host or cells: CHO-K1 cells stably transfected with HERG cDNA
Description: In Vitro Voltage Clamp Assay of Inhibition of Potassium Ion Current in Whole Cells Expressing the hERG Cardiac Potassium Channel
CHO-K^1 cells stably transfected with HERG cDNA were obtained from Gail Robertson at the University of Wisconsin. Cells were held in cryogenic storage until needed. Cells were expanded and passaged in Dulbecco's Modified Eagles Medium/F12 supplemented with 10% fetal bovine serum and 200 μg/mL geneticin. Cells were seeded onto poly-D-lysine (100 μg/mL) coated glass coverslips, in 35 mm^2 dishes (containing 2 mL medium) at a density that enabled isolated cells to be selected for whole cell voltage-clamp studies. The dishes were maintained in a humidified, 5% CO2 environment at 37° C.
Extracellular solution was prepared at least every 7 days and stored at 4° C. when not in use. […]
The coverslips on which the cells were seeded were transferred to a recording chamber and perfused continuously. […] Peak current amplitudes during the repolarization phase were determined using pClamp software. […]
Peak current amplitudes during the repolarization phase were determined using pCLAMP software. […] The normalized current means and standard errors for each condition were calculated and plotted versus the time course of the experiment. […]

T1 sequence (Q12809 whole entry): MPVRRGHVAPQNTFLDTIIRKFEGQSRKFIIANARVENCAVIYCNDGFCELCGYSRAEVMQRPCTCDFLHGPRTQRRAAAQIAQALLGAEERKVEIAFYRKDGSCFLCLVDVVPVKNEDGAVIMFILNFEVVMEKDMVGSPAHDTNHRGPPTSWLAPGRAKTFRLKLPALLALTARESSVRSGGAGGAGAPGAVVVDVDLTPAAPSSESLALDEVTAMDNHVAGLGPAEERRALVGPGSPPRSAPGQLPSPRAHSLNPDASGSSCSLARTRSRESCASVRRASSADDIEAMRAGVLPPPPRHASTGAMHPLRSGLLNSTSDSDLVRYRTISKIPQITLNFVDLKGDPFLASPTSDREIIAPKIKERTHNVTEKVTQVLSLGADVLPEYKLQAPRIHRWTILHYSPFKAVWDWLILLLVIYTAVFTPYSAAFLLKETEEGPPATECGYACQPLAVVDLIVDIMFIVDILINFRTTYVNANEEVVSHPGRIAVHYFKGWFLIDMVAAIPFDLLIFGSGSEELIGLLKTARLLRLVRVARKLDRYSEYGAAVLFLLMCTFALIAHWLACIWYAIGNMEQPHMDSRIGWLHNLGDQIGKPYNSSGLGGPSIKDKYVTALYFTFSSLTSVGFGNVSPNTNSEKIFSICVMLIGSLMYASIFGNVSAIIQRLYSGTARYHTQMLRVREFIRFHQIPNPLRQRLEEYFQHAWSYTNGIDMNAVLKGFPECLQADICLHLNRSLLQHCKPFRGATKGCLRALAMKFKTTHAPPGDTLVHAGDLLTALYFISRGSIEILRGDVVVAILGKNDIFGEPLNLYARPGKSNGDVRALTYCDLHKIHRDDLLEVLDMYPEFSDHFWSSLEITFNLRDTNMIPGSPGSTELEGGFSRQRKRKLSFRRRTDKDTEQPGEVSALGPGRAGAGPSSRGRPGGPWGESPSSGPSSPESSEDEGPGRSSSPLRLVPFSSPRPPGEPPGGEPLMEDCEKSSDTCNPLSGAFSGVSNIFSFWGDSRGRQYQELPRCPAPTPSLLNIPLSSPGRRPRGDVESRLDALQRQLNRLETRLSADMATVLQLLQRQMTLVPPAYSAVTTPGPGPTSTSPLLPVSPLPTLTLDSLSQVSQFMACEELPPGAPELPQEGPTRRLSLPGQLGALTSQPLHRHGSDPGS

Compound: CC(C)n1c(=O)c(C(=O)NC2CC3CCC(C2)N3CCCS(=O)(=O)N2CCN(C)CC2)cc2ccccc21 [Example 17, 1-isopropyl-2-oxo-1,2-dihydroquinoline-3-carboxylic acid {(1S,3R,5R)-8-[3-(4-methylpiperazine-1-sulfonyl)propyl]-8-azabicyclo[3.2.1]oct-3-yl}amide]
- bioavailability [1]: ~20%
- AUC(0-t) ([1]; po, 5 mg/kg): 450 ng·h/mL
- Cmax ([1]; po, 5 mg/kg): 60 ng/mL
- inhibition at 5 min, 3 µM [2]: < 15%
